Data on 3 compounds can be found in US8575185B2, “Compositions, synthesis, and methods of utilizing quinazolinedione derivatives” (Reviva Pharmaceuticals, Inc., priority 2009, dated 2013).

Where a name gives a salt, the structure may show the parent alone.

Assay [1] has as its target T1, serotonin 5-HT1A receptor (Homo sapiens, UniProt P08908).
T1 construct: expressed in transfected cells; host or cells: HEK-293 cells
T1 sequence (P08908 1-422): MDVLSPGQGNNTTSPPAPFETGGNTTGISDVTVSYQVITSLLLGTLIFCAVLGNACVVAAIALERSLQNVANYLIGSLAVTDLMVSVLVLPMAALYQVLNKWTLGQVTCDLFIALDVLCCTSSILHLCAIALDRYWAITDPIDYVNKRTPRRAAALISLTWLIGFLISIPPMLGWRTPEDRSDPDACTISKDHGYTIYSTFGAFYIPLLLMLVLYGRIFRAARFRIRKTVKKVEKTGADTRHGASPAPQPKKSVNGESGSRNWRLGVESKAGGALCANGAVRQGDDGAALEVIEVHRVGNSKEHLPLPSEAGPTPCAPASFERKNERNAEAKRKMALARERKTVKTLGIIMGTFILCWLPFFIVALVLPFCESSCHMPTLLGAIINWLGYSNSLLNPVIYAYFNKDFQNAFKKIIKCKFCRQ
Description: Serotonin, 5HT1A (Human Recombinant) Binding Assay. Particulars: human recombinant in HEK-293 cells, [3H]-8-OH-DPAT. Here is the method:
Serotonin, 5HT1A (Human Recombinant) Binding Assay
Receptor Source Human recombinant expressed in HEK-293 cells
Radioligand: [^3H]-8-OH-DPAT (221 Ci/mmol)
Control Compound: 8-OH-DPAT
Incubation Conditions The reactions were carried out in 50 mM TRIS-HCl (pH 7.4) containing 10 mM MgSO4, 0.5 mM EDTA and 0.1% Ascorbic acid at room temperature for 1 hour. The reaction was terminated by rapid vacuum filtration onto glass fiber filters. Radioactivity trapped onto the filters was determined and compared to control values in order to ascertain any interactions of test compounds with the cloned serotonin-5HT1A binding site (Literature Reference: Hoyer, D. et al. Eur. Journal Pharmacol. 1985, 118, 13-23; Schoeffter, P. and Hoyer, D. Naunyn-Schmiedeberg's Arch. Pharmac. 1989, 340, 135-138)
(§1) The radioligand binding assays for dopamine-D2S, serotonin-5HT1A and serotonin-5HT2A were carried out at six different concentrations and the test concentrations were 0.5 nM, 1 nM, 10 nm, 100 nM, 300 nM and 1000 nM.

Assay [2] deals with T2, dopamine-D2 short (D2S) receptor (Homo sapiens, UniProt P14416).
T2 construct: expressed in transfected cells; host or cells: CHO cells
T2 sequence (P14416 1-414 isoform P14416-2): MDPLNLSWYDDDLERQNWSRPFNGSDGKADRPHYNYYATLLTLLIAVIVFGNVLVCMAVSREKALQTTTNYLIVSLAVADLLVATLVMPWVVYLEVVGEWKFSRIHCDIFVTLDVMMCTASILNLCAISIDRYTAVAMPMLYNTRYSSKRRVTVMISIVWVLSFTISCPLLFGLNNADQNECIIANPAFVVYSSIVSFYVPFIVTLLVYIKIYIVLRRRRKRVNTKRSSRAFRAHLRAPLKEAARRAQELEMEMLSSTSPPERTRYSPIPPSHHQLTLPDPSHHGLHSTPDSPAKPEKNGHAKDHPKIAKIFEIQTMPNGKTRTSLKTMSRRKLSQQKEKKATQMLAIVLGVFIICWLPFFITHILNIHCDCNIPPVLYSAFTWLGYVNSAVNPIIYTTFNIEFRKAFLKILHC
Nature of the assay: Dopamine, D2s (Human Recombinant) Binding Assay. To be noted: human recombinant in CHO cells, [3H]Spiperone. On the procedure: Dopamine, D2s (Human Recombinant) Binding Assay
Receptor Source Human recombinant expressed in CHO cells
Radioligand: [^3H]Spiperone (20-60 Ci/mmol)
Control Compound Haloperidol
Incubation Conditions The reactions were carried out in 50 mM TRIS-HCl (pH 7.4) containing 120 mM NaCl, 5 mM KCl, 5 mM MgCl2, 1 mM EDTA for 60 minutes at 25 C. The reaction was terminated by rapid vacuum filtration onto glass fiber filters. Radioactivity trapped onto the filters was determined and compared to control values in order to ascertain any interactions of test compounds with the cloned dopamine-D2 short binding site (Literature Reference: Jarvis, K. R. et al. Journal of Receptor Research 1993, 13(1-4), 573-590; Gundlach, A. L. et al. Life Sciences 1984, 35, 1981-1988.)
as §1

The target in assay [3] is T3, serotonin 5-HT2A receptor (Homo sapiens, UniProt P28223).
T3 construct: Receptor Source Human Cortex; from tissue; host or cells: human cortex
T3 sequence (P28223 whole entry): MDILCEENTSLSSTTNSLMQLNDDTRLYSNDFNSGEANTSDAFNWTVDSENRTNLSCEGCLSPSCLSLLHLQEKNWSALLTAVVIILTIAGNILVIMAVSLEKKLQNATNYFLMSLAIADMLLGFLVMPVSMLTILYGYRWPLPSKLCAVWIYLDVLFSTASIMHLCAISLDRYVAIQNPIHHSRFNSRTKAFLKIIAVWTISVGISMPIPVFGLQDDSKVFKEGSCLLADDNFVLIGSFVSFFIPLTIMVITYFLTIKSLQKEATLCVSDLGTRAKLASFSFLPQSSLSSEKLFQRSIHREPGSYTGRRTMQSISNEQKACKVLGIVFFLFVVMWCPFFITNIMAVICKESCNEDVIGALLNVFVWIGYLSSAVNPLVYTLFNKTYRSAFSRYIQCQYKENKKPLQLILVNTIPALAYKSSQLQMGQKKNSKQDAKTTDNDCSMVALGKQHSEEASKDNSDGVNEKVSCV
Description: Serotonin, 5HT2a (Human) Binding Assay. Particulars: human cortex, [3H]-Ketanserin. Here is the method:
Serotonin, 5HT2a (Human) Binding Assay
Receptor Source Human Cortex
Radioligand: [^3H]-Ketanserin (60-90 Ci/mmol)
Control Compound Ketanserin
Incubation Conditions: The reactions were carried out in 50 mM TRIS-HCl (pH 7.6) at room temperature for 90 minutes. The reaction was terminated by rapid vacuum filtration onto glass fiber filters. Radioactivity trapped onto the filters was determined and compared to control values in order to ascertain any interactions of test compounds with the serotonin-5HT2A binding site (Literature Reference: Leysen, J. E. et al. Mol. Pharmacol. 1982, 21, 301-314; Martin, G. R. and Humphrey, P. P. A. Neuropharmacol. 1994, 33(3/4), 261-273.)
as §1

Regarding `COc1ccccc1N1CCN(CCCCOc2ccc3c(=O)[nH]c(=O)[nH]c3c2)CC1` [Compound 10a, 7-(4-(4-(2-Methoxyphenyl)piperazin-1-yl)butoxy)quinazoline-2,4(1H, 3H)-dione hydrochloride], the IC50 worked out at 1.09 nM in assay [1], 2.5 nM in assay [2] and 268 nM in assay [3]. Moreover, the Ki in assay [1] was determined as 0.66 nM; in assay [2] it was 0.74 nM; in assay [3], 131 nM.

For the compound `O=c1[nH]c(=O)c2ccc(OCCCCN3CCN(c4cccc(Cl)c4Cl)CC3)cc2[nH]1` [Compound 10b, 7-(4-(4-(2,3-Dichlorophenyl)piperazin-1-yl)butoxy)quinazoline-2,4(1H, 3H)-dione hydrochloride], the values for the IC50 in assay [1], in assay [2] and in assay [3] were 1.63 nM, 1.35 nM and 38.3 nM, respectively. The inhibitory constant (Ki) in assay [1] was determined as 0.99 nM; in assay [2], 0.43 nM; in assay [3], 20.4 nM.

Take `O=c1[nH]c2ccccc2c(=O)n1CCCCN1CCN(c2cccc(Cl)c2Cl)CC1` [Compound 17b, 3-(4-(4-(2,3-Dichlorophenyl)piperazin-1-yl)butyl)quinazoline-2,4(1H, 3H)-dione hydrochloride]: the IC50 in assay [1] stood at 0.95 nM; in assay [2], 6.35 nM; in assay [3], 82.6 nM. In addition, the Ki in assay [1] came to 0.58 nM; in assay [2], 1.87 nM; in assay [3], 40.5 nM.

As usually defined, the IC50 is the point on the concentration scale where inhibition reaches its midpoint. For orientation: Ki means the equilibrium dissociation constant of an inhibitor or competing ligand from its target.
